Patent publication US10519423B1, “High efficiency reprogramming of fibroblasts into cardiomyocytes” (The Regents of the University of Colorado, a body corporate, priority 2015, dated 2019)

Key:
[1] = test system: MEFs; assay: Intracellular staining for flow cytometry (cTnT, Myc) in retrovirus-infected MEFs; type: cell-based, mouse; conditions: for cTnThigh fraction: day 7
Experimental: C57BL6 pregnant mice at E13 were order from Charles River's laboratory. Embryos at E14.5 were harvested and their internal organs and head were removed. The body below the liver was minced using blade to fine pieces. Minced embryos were incubated with 2 ml of 0.25% trypsinIl mM EDTA, Phenol Red (Gibco) for 40 mins at 37° C. with 5% CO2. Cells were suspended in 25 ml of growth medium (DMEM/Hi glucose (Hyclone) 10% FBS (Gemini), 1.1% Penicillin-Streptomycin (Gibco) and 1.1% GlutaMAX supplement (Gibco)) and then plated on a 15 cm dish. In 24 hours, the media was aspirated and new 25 ml of growth medium was added. In 72 hours, MEFs were harvested and stored for future use.
(§1) Fibroblasts were plated on tissue culture dishes pre-coated with SureCoat (Cellutron) at a density of ˜40 cells/mm^2 before transduction. The fibroblast growth medium was replaced with freshly made viral mixture containing polybrene (Sigma). Twenty-four hours later, fibroblasts were infected again with viral mixture containing polybrene. Twenty fours later, the viral medium was replaced with induction medium, composed of DMEM/199 (4:1) (Gibco), 10% FBS (Gemini), 5% horse serum(Gemini), antibiotics (Gibco), 1× non-essential amino acids (Gibco), 1× essential amino acids (Gibco), 1× B-27 (Gibco), 1× insulin-selenium-transferin (Gibco), 1× vitamin mixture (Gibco), and 1× sodium pyruvate (Gibco). Medium was changed every two-three days until cells were examined.
Adherent fibroblasts were washed with DPBS (Gibco). Cells were detached from culture dish by treatment with 0.25% Trypsin/EDTA (Gibco) for 3 min at 37° C. Cells were then washed with 4 ml of 5% FBS (Gemini) in DPBS filtered through a cell strainer and centrifuge at 1200 rpm×6 mins. Cells were washed with 500 ul of 1% BSA in DPBS. Cells were fixed with BD Cytofix/Cytoperm™ solution in 0.2 ml/1 million cells in 1.5 ml eppendorf tube for 20 min on ice. Cells were washed with 1 ml of BD perm/wash buffer and Centrifuged for 6 min at 1200 rpm. The supernatant was discarded; cells were washed again with 1 ml of BD Perm/wash buffer and left overnight at 4° C. The next day, Cells were centrifuged for 6 min at 1200 rpm, the supernatant discarded and 100 μl of Blocking buffer made with 5% goat, donkey serum (Sigma: G9023 and D9663) in Perm/wash buffer was added to the cells and incubated for 30 min at RT. A primary antibody: Mouse Troponin T (cTnT) antibody (Thermo Scientific, ms-295-p, 1:200), mouse anti-C-Myc antibody (BD Pharmingen, 551102, 1:200) in 100 μl BD Perm/Wash buffer was added to the cells and incubated for 1 hr at RT. One ml cold BD Perm/wash buffer was added to the cells and centrifuged for 6 min at 1200 rpm. […] Cells were re-suspended in 300 ul of 1% BSA/DPBS and then analyzed using FACS Caliber (BD Sciences) and FlowJo software.

[2] = test system: MEFs; assay: Counting of spontaneously beating cells in infected MEFs; type: cell-based, mouse
Experimental: as §1
Cells in 60 mm dishes were examined under an EVOS® FL Color imaging system (Life Technologies) at 25° C. Beating cells were counted at a field with an area of 0.89 mm^2. Ten to fifteen fields in each dish were randomly chosen.

Compound: Cc1cccc(-c2nn(C(=S)Nc3ccccc3)cc2-c2ccnc3ccccc23)n1 [A83-01]
- cTnThigh fraction ([1]; GHMT2m-infected MEFs, alone or treated with A83-01 (0.5 μM, day 3 to day 7)): approximately 45.6%
- cTnThigh fraction ([1]; GHMT-infected MEFs, alone or treated with TGF-β1 (10 ng/ml) or A83-01 (0.5 μM, day 3 to day 7)): approximately 30.7%
- induction of cTnT+ cells by the small molecule alone ([1]; MEFs without reprogramming factors, flow cytometry): did not induce cTnT+ cells
- increase of the number of beating cells ([2]; GHMT2m-infected MEFs treated with A83-01, by day 8): 8 fold
- spontaneously contracting cells per cm^2 ([2]; GHMT-infected MEFs treated with A83-01 (0.5 μM), by 4 weeks): about 4400 cells per cm^2
- time by which cells started to beat ([2]; MEFs, GHMT2m alone, or GHMT-infected cultures treated with Y-27632 (30 μM) or A83-01 (0.5 μM)): ≤ 11 days
